Experimental data taken from US10087465B2, “Trans-acting elements for intracellular delivery of nucleic acid sequences” (The United States of America, as Represented by the …, priority 2014, dated 2018).
{F1} = fluorescein label

Experiments:
[1] = system: HEK 293, HeLa, HeLa pLuc705, MCF7 and SK—N—SH live cells; assay: Flow cytometry (FACS) analysis of cellular uptake of fluorescently-labeled PNA or PMO oligomers in live cells; type: cell-based
Protocol: Complex formation between PNA or PMO oligomers and dTtaPS or dAtaPS: Appropriate amounts of PNA or PMO oligomers were diluted in serum-free OptiMEM™ (20 μl). dTtaPS or dAtaPS was added to the oligomer solution to achieve a final concentration that is twice that of the oligomer. After 30 min incubation at 37° C., the PNA or PMO oligomer: dTtaPS or dAtaPS complexes were stored at 4° C. for 15 minutes or until used. Stock solutions (2×) of the complexes were made by adding OptiMEM™ to appropriate volumes.
Flow cytometry analysis of cellular uptake in live cells: The internalization of fluorescently-labeled PNA or PMO sequences (Table 1) in HEK 293, HeLa, MCF7 and SK—N—SH cells was assessed by flow cytometry. Cells were seeded in a 96-well plate (10^4 cells/well) and allowed to grow at 37° C. for 24 h in 10% FBS-MEM. The culture medium of each well was then replaced with fresh medium (100 μl) containing any of the fluorescently-labeled PNA or PMO sequences, the final concentration of which was 1 μM. After an incubation of 18 h at 37° C., the medium was removed from each well by suction and 0.25% Trypsin (50 μl) was added. Upon complete cell detachment, a solution (100 μl) of ice-cold 2% FBS in phosphate-buffered saline (PBS, pH 7.4) was added to each well. The cells were collected into tubes, to which was added 0.4% Trypan blue (50 μl) and 200 µM monensin (20 μl), and analyzed by fluorescence-activated cell sorting (FACS) using a BD FACScan™ flow cytometer. A total of 5000 events were counted and the results were reported as a percentage of the cells that have internalized the fluorescently-labeled oligomers.

[2] = system: HeLa pLuc 705 cells; assay: Confocal microscopy analysis of dTtaPS-assisted internalization of PNA or PMO oligomers; type: cell-based; conditions: dTtaPS-assisted uptake; oligomer 1.0, dTtaPS 2.0 μM; 12 h at 37° C.
Protocol: Confocal microscopy analysis of dTtaPS-assisted internalization of PNA or PMO oligomers in HeLa pLuc 705 cells: HeLa pLuc 705 cells (5×10^4 cells/well) were seeded in 8-well chambered slides and cultured for 24 h at 37° C. in 10% FBS-MEM (200 μl). The culture medium of each well was then replaced with 20% FBS containing fresh medium (200 μl) and the fluoresceinated PNA or PMO oligomer:dTtaPS complex that was prepared as described above to provide an oligomer and dTtaPS final concentration of […] and 2.0 μM, respectively. After a 12 h incubation at 37° C., the medium was removed and a 0.4% Trypan Blue solution (200 μl) was added to quench the fluorescence stemming from extracellular fluoresceinated oligonucleotides. After a period of 5 minutes at ambient temperature, the cells were washed twice with PBS (pH 7.4, 200 μl) followed by the addition of fresh phenol red-free DMEM (200 μl) supplemented with 10% FBS. The intracellular distribution of fluorescence was determined without fixation using a Leica SP8 confocal microscope system and analysed using the Leica LASAF software. Hoechst 33342 was used, in accordance with the manufacturer's staining protocols, for the detection of nuclei. Images were acquired at a 63× magnification.

Row | Substance | PS-dT8[3+] (dTtaPS)-mediated delivery of fluoresceinated PMO oligomers ([1]; PMO oligomer 1 μM, PS-dT8[3+] 2 μM, all cell lines, FIG. 17, listed as 18) | intracellular distribution of fluorescence [2] | mean fluorescence intensity (MFI) after internalization, relative to that of PMO oligomer 18 ([1]; dTtaPS-mediated uptake, FACS analysis) [fold] | PS-dT8[3+] (dTtaPS)-mediated cellular internalization of fluoresceinated PNA oligomers ([1]; in the presence of PS-dT8[3+], oligomer 1 μM, all cell lines under study, FIG. 11)
1 | PMO oligomer 18: commercial PMO, CCTCTTACCTCAGTTACA-AAAAAA-F1, SEQ ID NO. 12 (CCTCTTACCTCAGTTACAAAAAAA; all phosphorodiamidate morpholino (PMO), 3' {F1}) | confirmed the dTtaPS-assisted delivery | endosomal sequestration of 18 and modest nuclear fluorescence | – | –
2 | PNA oligomer 7: commercial PNA, F1-CCTCTTACCTCAGTTACA-AAAAAA-NH2, SEQ ID NO. 1 (CCTCTTACCTCAGTTACAAAAAAA; all peptide nucleic acid (PNA), 5' {F1}; PNA with C-terminal amide, further chemistry not fully specified) | – | endosomal sequestration of 7 is predominant | ~10 | efficiently internalized
